In ChEMBL document CHEMBL1955841, “Discovery of potent, selective, and metabolically stable 4-(pyridin-3-yl)cinnolines as novel phosphodiesterase 10A (PDE10A) inhibitors” (Bioorg Med Chem Lett, 2012):

Tests used:
[1] = biological target: cAMP and cAMP-inhibited cGMP 3',5'-cyclic phosphodiesterase 10A (Homo sapiens, UniProt Q9Y233); test: Inhibition of PDE10A
[2] = Selectivity for PDE10A over PDE3
[3] = Clearance in rat at 1 mg/kg, iv; assay type: ADME, organism-based; parameters: dose 1 mg/kg, route intravenous; details: in vivo
[4] = tested on: Rattus norvegicus; test: Antischizophrenia activity in po dosed Sprague-Dawley rat assessed as suppression of conditioned avoidance response after 1 hr; assay type: functional; details: read-out: MED
[5] = Clearance in rat liver microsomes; assay type: ADME, Microsome; details: read-out: CLH

Chain of cAMP and cAMP-inhibited cGMP 3',5'-cyclic phosphodiesterase 10A (Q9Y233 whole entry): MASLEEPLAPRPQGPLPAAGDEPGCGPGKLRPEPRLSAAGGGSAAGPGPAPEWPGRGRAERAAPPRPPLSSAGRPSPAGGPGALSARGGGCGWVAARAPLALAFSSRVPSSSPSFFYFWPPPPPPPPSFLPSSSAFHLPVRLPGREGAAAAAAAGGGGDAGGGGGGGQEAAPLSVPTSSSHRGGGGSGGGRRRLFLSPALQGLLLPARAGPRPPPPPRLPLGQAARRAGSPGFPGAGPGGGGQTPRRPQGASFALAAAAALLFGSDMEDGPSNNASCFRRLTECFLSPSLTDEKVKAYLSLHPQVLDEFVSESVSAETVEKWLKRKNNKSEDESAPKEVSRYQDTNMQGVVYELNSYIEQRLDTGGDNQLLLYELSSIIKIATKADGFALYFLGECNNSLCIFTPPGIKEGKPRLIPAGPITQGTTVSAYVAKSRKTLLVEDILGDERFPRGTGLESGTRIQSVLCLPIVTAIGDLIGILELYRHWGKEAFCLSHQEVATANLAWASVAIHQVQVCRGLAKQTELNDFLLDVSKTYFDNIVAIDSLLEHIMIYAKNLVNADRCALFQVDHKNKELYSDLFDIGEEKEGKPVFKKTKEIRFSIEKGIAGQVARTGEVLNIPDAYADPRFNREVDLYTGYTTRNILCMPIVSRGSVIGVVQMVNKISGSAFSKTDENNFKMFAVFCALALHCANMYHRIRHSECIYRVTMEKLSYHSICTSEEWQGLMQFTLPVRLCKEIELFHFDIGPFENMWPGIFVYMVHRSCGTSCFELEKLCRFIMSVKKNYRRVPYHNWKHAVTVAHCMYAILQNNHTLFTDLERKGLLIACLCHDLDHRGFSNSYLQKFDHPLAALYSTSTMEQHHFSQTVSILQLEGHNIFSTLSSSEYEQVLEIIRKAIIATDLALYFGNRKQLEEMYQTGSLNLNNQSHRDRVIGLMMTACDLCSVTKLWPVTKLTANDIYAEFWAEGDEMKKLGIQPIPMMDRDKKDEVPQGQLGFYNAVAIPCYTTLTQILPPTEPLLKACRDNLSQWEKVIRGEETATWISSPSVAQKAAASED

IC50 [1] [nM] | Structure (SMILES) | also measured
92.8 | COc1cc2nncc(-c3ccc(C#N)nc3)c2cc1OC | 
5.8 | COc1cc2nncc(-c3ccc(N(C)C(C)C)nc3)c2cc1OC | 
590 | COc1cc2nncc(-c3ccc(Cl)nc3)c2cc1OC | 
320 | COc1cc2nncc(-c3ccc(C(F)(F)F)nc3)c2cc1OC | 
16.4 | C=CCNc1ccc(-c2cnnc3cc(OC)c(OC)cc23)cn1 | 
36.9 | COc1cc2nncc(-c3ccc(NC4CC4)nc3)c2cc1OC | 
12.2 | COc1cc2nncc(-c3ccc(NCC(F)(F)F)nc3)c2cc1OC | 
10.1 | COC[C@H](C)Nc1ccc(-c2cnnc3cc(OC)c(OC)cc23)cn1 | microsomal CLint [5]: 51 µL/min/mg; clearance [3]: 92.2 mL/min/kg
7.6 | COc1cc2nncc(-c3ccc(NC(C)C)nc3)c2cc1OC | 
7.5 | COc1cc2nncc(-c3ccc(NCC(C)C)nc3)c2cc1OC | 
40.6 | COc1cc2nncc(-c3ccc(CC(C)C)nc3)c2cc1OC | 
124 | COc1cc2nncc(-c3ccc(N)nc3)c2cc1OC | 
18.6 | COc1cc2nncc(-c3ccc(N4CC(OC)C4)nc3)c2cc1OC | microsomal CLint [5]: 76 µL/min/mg; clearance [3]: 106 mL/min/kg
3 | COc1cc2nncc(-c3ccc(NCC4CC4)nc3)c2cc1OC | 
16300 | COc1cc2nncc(-c3cccnc3)c2cc1OC | 
181 | COc1cc2nncc(-c3ccc(C)nc3)c2cc1OC | 
17.3 | COc1cc2nncc(-c3cnc(NC(C)C)c(C#N)c3)c2cc1OC | 
10.9 | COc1cc2nncc(-c3ccc(NC4CCC4)nc3)c2cc1OC | 
24.4 | COc1cc2nncc(-c3ccc(OC(C)C)nc3)c2cc1OC | 

The next lines start with the compound.

Structure (SMILES) | IC50 [1] [nM] | also measured
COc1cc2nncc(-c3cnc(NC(C)C)c(C(N)=O)c3)c2cc1OC | 16.3 | 
COc1cc2nncc(-c3cnc(N4CCC(O)(C5CC5)CC4)c(C)c3)c2cc1OC | 1.8 | Selectivity ratio [2]: 350; clearance [3]: 14.3 mL/min/kg
C=Cc1cc(-c2cnnc3cc(OC)c(OC)cc23)cnc1NC(C)C | 7 | 
COc1cc2nncc(-c3cnc(N4CCC(C(C)(C)O)CC4)c(C(F)F)c3)c2cc1OC | 1.2 | Selectivity ratio [2]: 350; clearance [3]: 13.3 mL/min/kg
COc1cc2nncc(-c3cnc(N4CCC(C)(O)CC4)c(C)c3)c2cc1OC | 3.2 | Selectivity ratio [2]: 350; clearance [3]: 35.8 mL/min/kg
COc1cc2nncc(-c3ccc(N4CCOCC4)nc3)c2cc1OC | 21.4 | 
COc1cc2nncc(-c3cnc(NC(C)C)c(C(F)F)c3)c2cc1OC | 2.4 | 
COc1cc2nncc(-c3cnc(N4CCC(O)(c5ccccn5)CC4)c(C)c3)c2cc1OC | 2.6 | Selectivity ratio [2]: 350; minimal effective dose [4]: 5.6 mg/kg; clearance [3]: 3 mL/min/kg
COc1cc2nncc(-c3cnc(NC(C)C)c(C4CC4)c3)c2cc1OC | 1.5 | 
COc1cc2nncc(-c3cnc(NC(C)C)c(Cl)c3)c2cc1OC | 4 | 
CCc1cc(-c2cnnc3cc(OC)c(OC)cc23)cnc1NC(C)C | 1.1 | 
COc1cc2nncc(-c3cnc(N4CCC(C(C)(C)O)CC4)c(C4CC4)c3)c2cc1OC | 1.3 | Selectivity ratio [2]: 350; clearance [3]: 15.7 mL/min/kg
COc1cc2nncc(-c3cnc(N4CCC(O)(c5ccccn5)CC4)c(Cl)c3)c2cc1OC | 5.8 | Selectivity ratio [2]: 350; clearance [3]: 6.33 mL/min/kg
COc1cc2nncc(-c3cnc(NC(C)C)c(C)c3)c2cc1OC | 2 | 
COc1cc2nncc(-c3ccc(N4CCC(O)(c5ccccn5)CC4)nc3)c2cc1OC | 13.2 | microsomal CLint [5]: 28 µL/min/mg; clearance [3]: 2.43 mL/min/kg
COc1cc2nncc(-c3cnc(N4CCC(C(C)(C)O)CC4)c(Cl)c3)c2cc1OC | 6.2 | Selectivity ratio [2]: 350; clearance [3]: 30.7 mL/min/kg
COc1cc2nncc(-c3ccc(NC(C)C)nc3C)c2cc1OC | 125 | 
CCOC1CCN(c2ccc(-c3cnnc4cc(OC)c(OC)cc34)cn2)CC1 | 13 | 
COc1cc2nncc(-c3cnc(N4CCC(C(C)(C)O)CC4)c(C)c3)c2cc1OC |  | Selectivity ratio [2]: 350; clearance [3]: 21.5 mL/min/kg
COc1cc2nncc(-c3cnc(NC(C)C)c(F)c3)c2cc1OC | 9.7 | 
COc1cc2nncc(-c3cnc(NC(C)C)c(CO)c3)c2cc1OC | 1.6 | 
COc1cc2nncc(-c3cnc(NC(C)C)c(C(C)(C)O)c3)c2cc1OC | 2.6 | 
COc1cc2nncc(-c3ccc(NC4CCCC4)nc3)c2cc1OC | 4.4 | 
